Assay results published in patent US8299271B2, “Solid tartrate salts of DPP-IV inhibitors” (priority 2006, dated 2012).
Counter-ions that a name gives are not always drawn.

Experiments:
[1] = Salt preparation: isolation of solid salts of the pyrrolidine compound; format: physicochemical; conditions: acid plus free base in IPA, filtration, MTBE
[2] = Chemical stability by HPLC; format: physicochemical
Procedure: In addition, the solutions before spraying and the spray dried product were analyzed for purity by HPLC using the following method. A Waters Symmetry C18 (3.0×150 mm, 3.5 um) column was used. […] Column temperature was 60° C., and the detection wavelength was 210 nm. The injection volume was 15 μL; flow rate was 1.0 mL/minute for a run time of 70 minutes. The gradient was as follows: Chemical Stability. Chemical stability was determined using HPLC. […] The chemical stability of the tartrate salt and the free base was also determined after one and three months at 25° C., 40° C. and 60° C.

[3] = Chemical stability by HPLC; format: physicochemical; conditions: 45% RH for two months
[4] = Physical stability in humidity chambers
From the text: Physical Stability in Humidity Chambers. […] Samples were weighed hourly at first, and then on daily intervals.

12 Month Stability Study = format: physicochemical; design: Water: unit not given beside the values; conditions: for decomposition on storage: 25° C.
[5] = 3 months at 40° C., listed as Tartrate
[6] = 12 months, T = 25° C., RH = 60%

O=C(O)[C@@H](O)[C@H](O)C(=O)O [D-tartrate]
Comments (outcome of salt preparation) ([1]; listed as D-Tartaric Acid): Good filterable solid

O=C(CN[C@@H]1CCNC1)N1CCC[C@H]1B(O)O [Free Base, (2R)-1-{7-[(9R)-pyrrolidin-9-ylamino]-acetyl}-pyrrolidine-2-boronic acid]
Assay (%) ([2]; 1 month at 40° C.): 97%
Total Impurities (%) ([2]; 1 month at 40° C.): 15.4%
Assay (%) ([2]; 3 months at 40° C.): 50%
Total Impurities (%) ([2]; 3 months at 40° C.): 29.6%
Assay (%) ([2]; Initial): 96%
Total Impurities (%) ([2]; Initial): 7.6%

O=C(CN[C@@H]1CCNC1)N1CCC[C@H]1B(O)O [L-tartrate salt, (2R)-1-{7-[(9R)-pyrrolidin-9-ylamino]-acetyl}-pyrrolidine-2-boronic acid]
change in the purity (HPLC) [3]: Little or no change
Assay (%) ([2]; 1 month at 60° C.): 100%
Total Impurities (%) ([2]; 1 month at 60° C.): 5.8%
Assay (%) ([2]; 3 months at 25° C.): 99%
Total Impurities (%) ([2]; 3 months at 25° C.): 5.7%
Assay (%) [2, 5]: 97%
Total Impurities (%) [2, 5]: 5.9%
Assay (%) ([2]; 3 months at 60° C.): 92%
Total Impurities (%) ([2]; 3 months at 60° C.): 7.4%
Assay (%) ([2]; Initial, listed as Tartrate): 99%
Total Impurities (%) ([2]; Initial, listed as Tartrate): 6.5%
hygroscopicity [4]: moderately hygroscopic
processability of the solid ([4]; 63% relative humidity and room temperature for two months): remained a processable solid
physical behaviour of the solid at ambient conditions ([4]; ambient conditions): remains a processable solid
flow properties ([4]; open container, room temperature, 45% RH, two months): maintained good flow properties
processability of the solid ([4]; several days at ambient temperature, relative humidity of 75%): remained a processable solid
solubility in water and alcohols: > 2000 mg/mL
Assay (HPLC) (12 Month Stability Study; 1 month, T = 5° C., RH = N/A): 105.7
Purity (HPLC) (12 Month Stability Study; 1 month, T = 5° C., RH = N/A): 98.1
Water (12 Month Stability Study; 1 month, T = 5° C., RH = N/A): 9.8
Assay (HPLC) (12 Month Stability Study; 1 month, T = 25° C., RH = 60%): 105.7
Purity (HPLC) (12 Month Stability Study; 1 month, T = 25° C., RH = 60%): 98.1
Water (12 Month Stability Study; 1 month, T = 25° C., RH = 60%): 9.9
Assay (HPLC) (12 Month Stability Study; 1 month, T = 40° C., RH = 75%): 106.0
Purity (HPLC) (12 Month Stability Study; 1 month, T = 40° C., RH = 75%): 98.2
Water (12 Month Stability Study; 1 month, T = 40° C., RH = 75%): 10.0
Assay (HPLC) (12 Month Stability Study; 3 months, T = 5° C., RH = N/A): 106.2
Purity (HPLC) (12 Month Stability Study; 3 months, T = 5° C., RH = N/A): 98.0
Water (12 Month Stability Study; 3 months, T = 5° C., RH = N/A): 9.6
Assay (HPLC) (12 Month Stability Study; 3 months, T = 25° C., RH = 60%): 106.7
Purity (HPLC) (12 Month Stability Study; 3 months, T = 25° C., RH = 60%): 98.1
Water (12 Month Stability Study; 3 months, T = 25° C., RH = 60%): 9.4
Assay (HPLC) (12 Month Stability Study; 3 months, T = 40° C., RH = 75%): 105.3
Purity (HPLC) (12 Month Stability Study; 3 months, T = 40° C., RH = 75%): 97.9
Water (12 Month Stability Study; 3 months, T = 40° C., RH = 75%): 9.2
decomposition on storage (12 Month Stability Study; 6 months at 75% RH): no detectable decomposition
Assay (HPLC) (12 Month Stability Study; 6 months, T = 5° C., RH = N/A): 104.6
Purity (HPLC) (12 Month Stability Study; 6 months, T = 5° C., RH = N/A): 97.9
Water (12 Month Stability Study; 6 months, T = 5° C., RH = N/A): 8.9
Assay (HPLC) (12 Month Stability Study; 6 months, T = 25° C., RH = 60%): 105.9
Purity (HPLC) (12 Month Stability Study; 6 months, T = 25° C., RH = 60%): 97.9
Water (12 Month Stability Study; 6 months, T = 25° C., RH = 60%): 9.3
Assay (HPLC) (12 Month Stability Study; 6 months, T = 40° C., RH = 75%): 105.6
Purity (HPLC) (12 Month Stability Study; 6 months, T = 40° C., RH = 75%): 97.7
Water (12 Month Stability Study; 6 months, T = 40° C., RH = 75%): 9.5
Assay (HPLC) (12 Month Stability Study; 9 months, T = 5° C., RH = N/A): 106.7
Purity (HPLC) (12 Month Stability Study; 9 months, T = 5° C., RH = N/A): 97.8
Water (12 Month Stability Study; 9 months, T = 5° C., RH = N/A): 9.1
Assay (HPLC) (12 Month Stability Study; 9 months, T = 25° C., RH = 60%): 107.3
Purity (HPLC) (12 Month Stability Study; 9 months, T = 25° C., RH = 60%): 97.8
Water (12 Month Stability Study; 9 months, T = 25° C., RH = 60%): 9.0
decomposition on storage (12 Month Stability Study; 12 months at 60% RH): no detectable decomposition
Assay (HPLC) (12 Month Stability Study; 12 months, T = 5° C., RH = N/A): 107.8
Purity (HPLC) (12 Month Stability Study; 12 months, T = 5° C., RH = N/A): 98.0
Water (12 Month Stability Study; 12 months, T = 5° C., RH = N/A): 9.3
Assay (HPLC) (12 Month Stability Study; [6]): 107.7
Purity (HPLC) (12 Month Stability Study; [6]): 97.9
Water (12 Month Stability Study; [6]): 9.3
change in chemical purity (12 Month Stability Study; any of the conditions tested, 12 month study): substantially no change
Assay (HPLC) (12 Month Stability Study; time = 0): 105.1
Purity (HPLC) (12 Month Stability Study; time = 0): 98.3
Water (12 Month Stability Study; time = 0): 10.4

citrate
Comments (outcome of salt preparation) [1]: Good filterable solid
stability at 63% RH ([4]; 63% RH): stable
stability when submitted to 75% relative humidity ([4]; 75% RH): not stable
